In patent publication US11613525B2 (CTXT PTY LIMITED, priority 2018, dated 2023):

Legend:
huSTING (HAQ) = huSTING (HAQ) (Homo sapiens (Human), UniProt Q86WV6, G230A/H232R/R293Q/R71H); test: THP-1 reporter cell line assay, THP-1 STING Lucia ISG cells; type: cell-based; conditions: THP-1 STING Lucia ISG cells; modified method, top concentration 40 μM, pin tool, EnVision; read-out: Cellular EC50 huSTING (HAQ)
huSTING (WT) = huSTING (WT) (Homo sapiens (Human), UniProt Q86WV6, H232R); test: THP-1 reporter cell line assay, THP-1-Dual KI-hSTING-R232 cells; type: cell-based; conditions: read-out: Cellular EC50 huSTING (WT)
Chain of huSTING (WT) (Q86WV6 whole entry H232R): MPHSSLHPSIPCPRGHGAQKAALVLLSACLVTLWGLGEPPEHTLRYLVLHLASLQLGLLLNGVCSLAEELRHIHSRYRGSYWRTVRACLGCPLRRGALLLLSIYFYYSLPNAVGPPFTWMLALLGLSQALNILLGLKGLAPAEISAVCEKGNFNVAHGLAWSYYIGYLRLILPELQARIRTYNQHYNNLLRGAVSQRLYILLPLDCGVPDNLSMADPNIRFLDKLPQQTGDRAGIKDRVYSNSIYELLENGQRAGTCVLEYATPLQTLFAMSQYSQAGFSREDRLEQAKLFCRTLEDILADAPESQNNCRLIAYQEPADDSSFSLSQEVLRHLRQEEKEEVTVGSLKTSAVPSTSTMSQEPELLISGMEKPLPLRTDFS

Chain of huSTING (HAQ) (Q86WV6 whole entry R71H/G230A/H232R/R293Q): as the sequence (Q86WV6 whole entry H232R) above, with R71H, G230A, R293Q counted along it

SMILES	EC50 (huSTING (HAQ)) [nM]	EC50 (huSTING (WT)) [nM]
CCOC(=O)c1sc2cccc(Cl)c2c1COc1ccc(C(N)=O)c(OC)c1 [Example 97, Ethyl 3-((4-carbamoyl-3-methoxyphenoxy)methyl)-4-chlorobenzo[b]thiophene-2-carboxylate]	1430	9720
CCOC(=O)c1sc2c(Br)ccc(Cl)c2c1COc1c(F)cc(C(N)=O)cc1F [Example 99, Ethyl 7-bromo-3-((4-carbamoyl-2,6-difluorophenoxy)methyl)-4-chlorobenzo[b]thiophene-2-carboxylate]	22	135
CCOC(=O)c1sc2ccnc(OC)c2c1COc1c(F)cc(C(N)=O)cc1F [Example 102, Ethyl 3-((4-carbamoyl-2,6-difluorophenoxy)methyl)-4-methoxythieno[3,2-c]pyridine-2-carboxylate]	53	377
CCOC(=O)c1sc2ncnc(OC)c2c1COc1c(F)cc(C(N)=O)cc1F [Example 108]	344	341
CCOC(=O)c1sc2cccc(Cl)c2c1COc1c(F)cc(C(N)=O)cc1CO [Example 110, Ethyl 3-((4-carbamoyl-2-fluoro-6-(hydroxymethyl)phenoxy)methyl)-4-chlorobenzo[b]thiophene-2-carboxylate]	13	52
CCOC(=O)c1sc2cccc(COC)c2c1COc1c(F)cc(C(N)=O)cc1F [Example 115, Ethyl 3-((4-carbamoyl-2,6-difluorophenoxy)methyl)-4-(methoxymethyl)benzo[b]thiophene-2-carboxylate]	635	1510
CCOC(=O)c1sc2c(F)ccc(Br)c2c1COc1c(F)cc(C(N)=O)cc1F [Example 116, Ethyl 4-bromo-3-((4-carbamoyl-2,6-difluorophenoxy)methyl)-7-fluorobenzo[b]thiophene-2-carboxylate]	24	76
CCOC(=O)c1sc2ccnc(OC)c2c1COc1c(F)cc(C(N)=O)cc1CO [Example 121, Ethyl 3-((4-carbamoyl-2-fluoro-6-(hydroxymethyl)phenoxy)methyl)-4-methoxythieno[3,2-c]pyridine-2-carboxylate]	59	580
COc1cccc2sc(C(=O)OCOC(=O)C(C)(C)C)c(COc3c(F)cc(C(N)=O)cc3F)c12 [Example 123, (Pivaloyloxy)methyl 3-((4-carbamoyl-2,6-difluorophenoxy)methyl)-4-methoxybenzo[b]thiophene-2-carboxylate]	49	335
CC(C)(C)C(=O)OCOC(=O)c1sc2cccc(C3CC3)c2c1COc1c(F)cc(C(N)=O)cc1F [Example 124, (Pivaloyloxy)methyl 3-((4-carbamoyl-2,6-difluorophenoxy)methyl)-4-cyclopropylbenzo[b]thiophene-2-carboxylate]	278	1430
CCC(=O)OC(OC(=O)c1sc2cccc(Cl)c2c1COc1c(F)cc(C(N)=O)cc1F)C(C)C (stereo not shown) [Example 125, 2-Methyl-1-(propionyloxy)propyl 3-((4-carbamoyl-2,6-difluorophenoxy)methyl)-4-chlorobenzo[b]thiophene-2-carboxylate]	86	529
Cc1oc(=O)oc1COC(=O)c1sc2cccc(Cl)c2c1COc1c(F)cc(C(N)=O)cc1F [Example 126, (5-Methyl-2-oxo-1,3-dioxol-4-yl)methyl 3-((4-carbamoyl-2,6-difluorophenoxy)methyl)-4-chlorobenzo[b]thiophene-2-carboxylate]	39	187
CC(C)(C)C(=O)OCOC(=O)c1sc2cccc(Br)c2c1COc1c(F)cc(C(N)=O)cc1F [Example 128, (Pivaloyloxy)methyl 4-bromo-3-((4-carbamoyl-2,6-difluorophenoxy)methyl)benzo[b]thiophene-2-carboxylate]	68	210
CC(OC(=O)OC(C)(C)C)OC(=O)c1sc2cccc(Cl)c2c1COc1c(F)cc(C(N)=O)cc1F (stereo not shown) [Example 129, 1-((tert-Butoxycarbonyl)oxy)ethyl 3-((4-carbamoyl-2,6-difluorophenoxy)methyl)-4-chlorobenzo[b]thiophene-2-carboxylate]	119	1580
CC(C)(C)OC(=O)OCOC(=O)c1sc2cccc(Cl)c2c1COc1c(F)cc(C(N)=O)cc1F [Example 130, ((tert-Butoxycarbonyl)oxy)methyl 3-((4-carbamoyl-2,6-difluorophenoxy)methyl)-4-chlorobenzo[b]thiophene-2-carboxylate]	60	687
CC(C)(C)C(=O)OCOC(=O)c1sc2c(F)ccc(Br)c2c1COc1c(F)cc(C(N)=O)cc1F [Example 131]	44	57

SMILES	EC50 (huSTING (HAQ)) [nM]	EC50 (huSTING (WT)) [nM]
CC(C)OC(=O)OC(C)OC(=O)c1sc2cccc(Cl)c2c1COc1c(F)cc(C(N)=O)cc1F (stereo not shown) [Example 132, 1-((Isopropoxycarbonyl)oxy)ethyl 3-((4-carbamoyl-2,6-difluorophenoxy)methyl)-4-chlorobenzo[b]thiophene-2-carboxylate]	97	916
CC(C)[C@H](NC(=O)OC(C)(C)C)C(=O)OCOC(=O)c1sc2cccc(Cl)c2c1COc1c(F)cc(C(N)=O)cc1F [Example 133, (((tert-Butoxycarbonyl)-L-valyl)oxy)methyl 3-((4-carbamoyl-2,6-difluorophenoxy)methyl)-4-chlorobenzo[b]thiophene-2-carboxylate]	120	806
CC(=O)OC(C)OC(=O)c1sc2cccc(Cl)c2c1COc1c(F)cc(C(N)=O)cc1F (stereo not shown) [Example 134, 1-Acetoxyethyl 3-((4-carbamoyl-2,6-difluorophenoxy)methyl)-4-chlorobenzo[b]thiophene-2-carboxylate]	42	217
CC(OC(=O)c1sc2cccc(Cl)c2c1COc1c(F)cc(C(N)=O)cc1F)OC(=O)C(C)C (stereo not shown) [Example 135, 1-(Isobutyryloxy)ethyl 3-((4-carbamoyl-2,6-difluorophenoxy)methyl)-4-chlorobenzo[b]thiophene-2-carboxylate]	64	334
NC(=O)c1cc(F)c(OCc2c(C(=O)OCCN3CCOCC3)sc3cccc(Cl)c23)c(F)c1 [Example 137, 2-Morpholinoethyl 3-((4-carbamoyl-2,6-difluorophenoxy)methyl)-4-chlorobenzo[b]thiophene-2-carboxylate]	21	226
CN(C)C(=O)OCOC(=O)c1sc2cccc(Cl)c2c1COc1c(F)cc(C(N)=O)cc1F [Example 138, ((Dimethylcarbamoyl)oxy)methyl 3-((4-carbamoyl-2,6-difluorophenoxy)methyl)-4-chlorobenzo[b]thiophene-2-carboxylate]	14	242
CC(=O)N[C@H](C(=O)OCOC(=O)c1sc2cccc(Cl)c2c1COc1c(F)cc(C(N)=O)cc1F)C(C)C [Example 139, ((Acetyl-L-valyl)oxy)methyl 3-((4-carbamoyl-2,6-difluorophenoxy)methyl)-4-chlorobenzo[b]thiophene-2-carboxylate]	36	291
CCC(=O)OC(OC(=O)c1sc2c(F)ccc(Br)c2c1COc1c(F)cc(C(N)=O)cc1F)C(C)C (stereo not shown) [Example 140, 2-Methyl-1-(propionyloxy)propyl 4-bromo-3-((4-carbamoyl-2,6-difluorophenoxy)methyl)-7-fluorobenzo[b]thiophene-2-carboxylate]	46	160
COC(=O)c1sc2cccc(F)c2c1COc1ccc(C(N)=O)cc1 [Example 141, Methyl 3-((4-carbamoylphenoxy)methyl)-4-fluorobenzo[b]thiophene-2-carboxylate]	1770	3340
CCOC(=O)c1sc2cccc(C3CC3)c2c1COc1c(F)cc(C(N)=O)cc1F [Example 142, Ethyl 3-((4-carbamoyl-2,6-difluorophenoxy)methyl)-4-cyclopropylbenzo[b]thiophene-2-carboxylate]	181	3120
CCOC(=O)c1sc2c(C)ccc(Cl)c2c1COc1c(F)cc(C(N)=O)cc1F [Example 144, Ethyl 3-((4-carbamoyl-2,6-difluorophenoxy)methyl)-4-chloro-7-methylbenzo[b]thiophene-2-carboxylate]	23	925
CCOC(=O)c1sc2c(CO)ccc(Cl)c2c1COc1c(F)cc(C(N)=O)cc1F [Example 145, Ethyl 3-((4-carbamoyl-2,6-difluorophenoxy)methyl)-4-chloro-7-(hydroxymethyl)benzo[b]thiophene-2-carboxylate]	746	3840
CCOC(=O)c1sc2c(COC)ccc(Cl)c2c1COc1c(F)cc(C(N)=O)cc1F [Example 146, Ethyl 3-((4-carbamoyl-2,6-difluorophenoxy)methyl)-4-chloro-7-(methoxymethyl)benzo[b]thiophene-2-carboxylate]	41	2150
CCOC(=O)c1sc2c(O)ccc(Cl)c2c1COc1c(F)cc(C(N)=O)cc1F [Example 147, Ethyl 3-((4-carbamoyl-2,6-difluorophenoxy)methyl)-4-chloro-7-hydroxybenzo[b]thiophene-2-carboxylate]	65	1620
CCOC(=O)c1sc2c(OC)ccc(Cl)c2c1COc1c(F)cc(C(N)=O)cc1F [Example 149, Ethyl 3-((4-carbamoyl-2,6-difluorophenoxy)methyl)-4-chloro-7-methoxybenzo[b]thiophene-2-carboxylate]	613	797
CCOC(=O)c1sc2cccc(Cl)c2c1COc1ccc(C(N)=O)c(COC)c1 [Example 150, Ethyl 3-((4-carbamoyl-3-(methoxymethyl)phenoxy)methyl)-4-chlorobenzo[b]thiophene-2-carboxylate]	550	489
